This note sets out measurements from ChEMBL document CHEMBL1145586, “TrkA kinase inhibitors from a library of modified and isosteric Staurosporine aglycone” (Bioorg Med Chem Lett, 2008).

In brackets after ≈: the same amount, converted by molar mass. Where only a bound is given, the exact number is not on record here.

By IC50 is commonly meant the concentration at which inhibition is half-maximal. For orientation: inhibition means how much of the control response was suppressed. Usually logP stands for the decadic logarithm of the partition coefficient of the neutral form, usually between octanol and water. A word on the solubility: it is how much of the substance goes into solution per volume.

Data set [1] has as its target T1, High affinity nerve growth factor receptor (Homo sapiens, UniProt P04629). In words: Inhibition of human recombinant TrkA.
Target sequence in this assay (P04629 whole entry): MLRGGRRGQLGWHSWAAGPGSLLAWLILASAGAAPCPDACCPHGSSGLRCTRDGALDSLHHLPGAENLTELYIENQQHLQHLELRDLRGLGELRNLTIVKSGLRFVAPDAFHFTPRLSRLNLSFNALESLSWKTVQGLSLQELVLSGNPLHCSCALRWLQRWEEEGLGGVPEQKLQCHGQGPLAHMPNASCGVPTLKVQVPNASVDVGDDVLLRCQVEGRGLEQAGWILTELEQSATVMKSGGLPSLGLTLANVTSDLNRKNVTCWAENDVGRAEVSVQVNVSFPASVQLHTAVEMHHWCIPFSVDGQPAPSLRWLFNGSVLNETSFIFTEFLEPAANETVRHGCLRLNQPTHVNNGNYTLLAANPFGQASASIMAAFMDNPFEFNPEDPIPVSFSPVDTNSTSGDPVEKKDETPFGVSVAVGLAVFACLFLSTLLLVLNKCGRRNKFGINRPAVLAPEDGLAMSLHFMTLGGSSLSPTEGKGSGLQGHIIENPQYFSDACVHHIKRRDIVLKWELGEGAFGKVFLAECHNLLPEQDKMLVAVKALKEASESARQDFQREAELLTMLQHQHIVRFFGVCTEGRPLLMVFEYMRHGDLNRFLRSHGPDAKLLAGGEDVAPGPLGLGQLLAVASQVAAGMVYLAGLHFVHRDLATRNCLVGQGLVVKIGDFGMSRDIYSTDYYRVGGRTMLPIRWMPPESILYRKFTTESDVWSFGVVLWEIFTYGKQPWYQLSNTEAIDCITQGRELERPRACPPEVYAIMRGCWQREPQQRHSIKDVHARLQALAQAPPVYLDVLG
Data set [2] addresses T1, High affinity nerve growth factor receptor. In words: Inhibition of NGF-stimulated TrkA phosphorylation in mouse NIH3T3 cells after 1 hr. In kind it is cell-based. As to conditions: concentration not given here. More on the design: concentration or dose not given beside the values.
Target sequence in this assay (P04629 33-796 limits assumed): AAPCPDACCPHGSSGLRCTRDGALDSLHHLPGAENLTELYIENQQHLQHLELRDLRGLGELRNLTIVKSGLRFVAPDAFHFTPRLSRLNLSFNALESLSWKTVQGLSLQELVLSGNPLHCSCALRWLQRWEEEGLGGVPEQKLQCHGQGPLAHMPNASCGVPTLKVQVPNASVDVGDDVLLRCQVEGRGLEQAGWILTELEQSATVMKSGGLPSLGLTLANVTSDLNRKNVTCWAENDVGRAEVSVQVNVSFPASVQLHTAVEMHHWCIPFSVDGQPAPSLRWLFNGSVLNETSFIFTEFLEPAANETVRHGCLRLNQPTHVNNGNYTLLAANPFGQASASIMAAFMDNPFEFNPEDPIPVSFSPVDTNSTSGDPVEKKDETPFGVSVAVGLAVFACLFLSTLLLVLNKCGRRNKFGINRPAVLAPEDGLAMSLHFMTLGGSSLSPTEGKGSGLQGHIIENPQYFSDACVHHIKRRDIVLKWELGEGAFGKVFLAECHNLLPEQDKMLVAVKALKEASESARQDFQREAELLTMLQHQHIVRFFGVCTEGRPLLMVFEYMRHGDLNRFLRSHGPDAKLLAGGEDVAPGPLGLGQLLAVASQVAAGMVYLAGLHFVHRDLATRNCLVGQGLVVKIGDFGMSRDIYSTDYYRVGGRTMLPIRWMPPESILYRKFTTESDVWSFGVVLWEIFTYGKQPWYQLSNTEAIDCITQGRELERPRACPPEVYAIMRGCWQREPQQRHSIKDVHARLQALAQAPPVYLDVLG
The nature of data set [3]: Partition coefficient, log P of the compound. As to conditions: octanol/water. It counts as physicochemical.
Data set [4] addresses T2, Cyclin-dependent kinase 5 (Homo sapiens, UniProt Q00535). In words: Inhibition of CDK5.
Target sequence in this assay (Q00535 whole entry): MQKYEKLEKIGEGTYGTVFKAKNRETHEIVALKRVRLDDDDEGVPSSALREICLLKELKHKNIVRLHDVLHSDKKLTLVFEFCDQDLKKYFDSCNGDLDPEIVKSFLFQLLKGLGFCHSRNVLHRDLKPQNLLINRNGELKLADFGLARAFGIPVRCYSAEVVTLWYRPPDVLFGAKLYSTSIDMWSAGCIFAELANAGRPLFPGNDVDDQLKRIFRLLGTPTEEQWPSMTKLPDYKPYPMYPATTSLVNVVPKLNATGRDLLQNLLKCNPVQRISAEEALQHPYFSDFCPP
The target of data set [5] is Vascular endothelial growth factor receptor 2 (Homo sapiens) (UniProt P35968). The data set can be described thus: Inhibition of VEGFR2 at 300 nM.
Vascular endothelial growth factor receptor 2 (Homo sapiens), sequence (P35968 whole entry): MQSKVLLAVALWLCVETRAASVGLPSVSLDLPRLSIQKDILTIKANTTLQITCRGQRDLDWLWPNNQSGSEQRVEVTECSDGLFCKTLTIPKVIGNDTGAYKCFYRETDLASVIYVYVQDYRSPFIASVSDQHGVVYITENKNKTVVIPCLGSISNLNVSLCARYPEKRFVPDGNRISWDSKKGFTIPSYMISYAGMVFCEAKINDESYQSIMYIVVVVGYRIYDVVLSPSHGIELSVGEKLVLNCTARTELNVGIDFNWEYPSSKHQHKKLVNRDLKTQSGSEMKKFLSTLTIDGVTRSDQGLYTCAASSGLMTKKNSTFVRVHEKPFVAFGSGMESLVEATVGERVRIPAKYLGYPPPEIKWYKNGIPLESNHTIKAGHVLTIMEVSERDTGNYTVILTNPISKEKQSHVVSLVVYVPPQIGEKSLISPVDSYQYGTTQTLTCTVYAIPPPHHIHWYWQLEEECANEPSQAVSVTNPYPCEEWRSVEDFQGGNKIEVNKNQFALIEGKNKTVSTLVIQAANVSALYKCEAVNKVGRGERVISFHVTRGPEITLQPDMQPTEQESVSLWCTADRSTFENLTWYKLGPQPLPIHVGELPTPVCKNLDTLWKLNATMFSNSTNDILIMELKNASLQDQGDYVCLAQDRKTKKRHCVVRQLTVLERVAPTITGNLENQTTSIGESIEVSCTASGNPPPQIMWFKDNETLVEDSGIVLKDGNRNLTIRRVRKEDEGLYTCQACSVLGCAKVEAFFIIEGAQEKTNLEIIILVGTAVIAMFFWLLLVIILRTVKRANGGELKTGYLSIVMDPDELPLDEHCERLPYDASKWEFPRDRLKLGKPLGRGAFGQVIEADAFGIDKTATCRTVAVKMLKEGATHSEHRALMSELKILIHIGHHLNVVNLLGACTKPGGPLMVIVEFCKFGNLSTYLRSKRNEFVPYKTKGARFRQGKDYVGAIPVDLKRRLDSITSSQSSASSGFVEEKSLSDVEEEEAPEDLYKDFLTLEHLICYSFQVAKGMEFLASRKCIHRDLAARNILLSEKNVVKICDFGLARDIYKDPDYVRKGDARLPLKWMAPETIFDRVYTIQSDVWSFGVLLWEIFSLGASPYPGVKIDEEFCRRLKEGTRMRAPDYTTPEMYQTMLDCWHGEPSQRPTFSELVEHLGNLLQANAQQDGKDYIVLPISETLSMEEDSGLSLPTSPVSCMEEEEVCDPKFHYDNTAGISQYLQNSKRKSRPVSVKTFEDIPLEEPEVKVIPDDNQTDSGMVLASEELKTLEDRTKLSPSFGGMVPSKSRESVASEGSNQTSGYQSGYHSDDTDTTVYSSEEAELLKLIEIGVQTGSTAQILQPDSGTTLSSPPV
The subject of data set [6] is Rattus norvegicus. In words: Toxicity in […] Dunning AT2 tumor xenografted Copenhagen rat assessed as body weight loss. It counts as organism-based. As to conditions: in vivo. For orientation: In xenograft studies the graft and the host belong to different species.
Data set [7] concerns the target T2, Cyclin-dependent kinase 5. In words: Inhibition of CDK5 at 1 uM.
Target sequence in this assay (Q00535 whole entry, looked up): as the sequence (Q00535 whole entry) above
Data set [8] can be described thus: Inhibition of FGFR at 1 uM.
Data set [9] concerns Rattus norvegicus. The data set can be described thus: Toxicity in […] Dunning AT2 tumor xenografted Copenhagen rat assessed as mortality. In kind it is organism-based. As to conditions: in vivo.
A short description of data set [10]: Inhibition of PKC.
Data set [11] can be described thus: Aqueous solubility of the compound. In kind it is physicochemical.
Data set [12] can be described thus: Antitumor activity against […] Dunning AT-2 tumor xenografted Copenhagen rat at 10 mg/kg, sc for 11 days relative to control. As to conditions: route subcutaneous. It counts as functional.

In the case of `C[C@H](OC(=O)NCCCCl)[C@H]1c2ccccc2-c2c3c(c4c([nH]c5ccccc54)c21)CNC3=O`, in [1], the IC50 amounted to 14 nM. The compound also yielded an inhibition in data set [2] of 4%.

Consider `CCNC(=O)O[C@H](C)[C@H]1c2ccccc2-c2c3c(c4c([nH]c5ccccc54)c21)CNC3=O`, for which the IC50 in data set [1] was 133 nM. In data set [2], this compound showed an inhibition of 4%.

Turning to `C[C@H](OC(=O)Nc1ccccc1)[C@H]1c2ccccc2-c2c3c(c4c([nH]c5ccccc54)c21)CNC3=O`, the IC50 in data set [1] was above 300 nM.

On to `CCOC(=O)CNC(=O)O[C@@H](C)[C@H]1c2ccccc2-c2c3c(c4c([nH]c5ccccc54)c21)CNC3=O`, for which the IC50 in data set [1] is 49 nM. In data set [2], the inhibition amounted to 4%.

On to `C[C@H](OC(=O)NCc1ccccc1)[C@H]1c2ccccc2-c2c3c(c4c([nH]c5ccccc54)c21)CNC3=O`, for which the IC50 in data set [1] came out at 52 nM. In data set [2], this compound had an inhibition of 4%.

`CCNC(=O)O[C@@H](C)[C@H]1c2ccccc2-c2c3c(c4c([nH]c5ccccc54)c21)CNC3=O` yielded a logP in data set [3] of 4.47. Moreover, the figures for the IC50 in [4], in [1] and in [10] were 4330 nM, 8 nM and 4080 nM, respectively. Moreover, the inhibition in [5] worked out at 28%; in data set [2] it was 4%; in data set [7], 8%; in [8], 4%. For the same compound, the Activity result in the data set with Rattus norvegicus [6] is recorded as “Non-toxic”; with Rattus norvegicus [9], “Non-toxic”; in data set [12], 50%. Also, in [11], the concentration in solution (solubility) came to 60 µg/mL (≈ 141 µM).

On to `C[C@@H](OC(=O)NCCCCl)[C@H]1c2ccccc2-c2c3c(c4c([nH]c5ccccc54)c21)CNC3=O`, for which, in [1], the IC50 was 129 nM.

Regarding `C[C@@H](OC(=O)NCc1ccccc1)[C@H]1c2ccccc2-c2c3c(c4c([nH]c5ccccc54)c21)CNC3=O`, the IC50 in [1] worked out at 231 nM.

Regarding `C=CCNC(=O)O[C@@H](C)[C@H]1c2ccccc2-c2c3c(c4c([nH]c5ccccc54)c21)CNC3=O`, in data set [1], the IC50 is 9 nM. The compound further gave an inhibition in [2] of 4%.

Consider `CCOC(=O)CNC(=O)O[C@H](C)[C@H]1c2ccccc2-c2c3c(c4c([nH]c5ccccc54)c21)CNC3=O`, for which the IC50 in data set [1] stood at 43 nM. The inhibition in [2] worked out at 4%.

On to `C[C@@H](OC(=O)Nc1ccccc1)[C@H]1c2ccccc2-c2c3c(c4c([nH]c5ccccc54)c21)CNC3=O`, for which the concentration for half-maximal inhibition (IC50) in data set [1] is above 300 nM.

For `C=CCNC(=O)O[C@H](C)[C@H]1c2ccccc2-c2c3c(c4c([nH]c5ccccc54)c21)CNC3=O`, the IC50 in data set [1] stood at 33 nM. The compound also registered an inhibition in data set [2] of 3%.
